From patent US20240261245A1, “METHODS OF TREATING CANCERS HAVING A DEREGULATED NRF2/KEAP1 PATHWAY” (New York University, priority 2017, published 2024)
Where a name gives a salt, the structure may show the parent alone. Read-outs that look alike come from different tables or passages of the source.

Assays:
[1] = system: Nrf2; assay: Western blot for Nrf2 after oxidative stress inducer DMF in isogenic KP/KPK cells; format: cell-based, mouse; conditions: control (KP) cells; 6 hour DMF treatment
Excerpt: To perform in vitro functional characterization of and Keap1, isogenic cell lines were generated from a Kras^LSL-G12D/+; p53^−/− C57B6 GEMM-derived cell line using the CRISPR/Cas9 and sgRNAs against Keap1. LOF of the gene was validated by western blot analysis in basal conditions and in the presence of an oxidative stress inducer, dimethyl fumarate (DMF), which is known to deplete the cellular glutathione pool and induce Nrf2 activation (Sullivan et al., “The Proto-oncometabolite Fumarate Binds Glutathione to Amplify ROS-Dependent Signaling,” Molecular Cell 51:236-248 (2013), which is hereby incorporated by reference in its entirety). It was observed that Nrf2 is induced in control cells in response to 6 hour DMF treatment. Keap1 LOF leads to a robust increase of Nrf2 even in the absence of DMF (FIG. 13).

[2] = system: GPD2; conditions: in vivo; cited from earlier work
[3] = intraperitoneal, 50 mg/kg daily over 30 days; cited from earlier work
[4] = system: KP, KPN and KPK cell lines; assay: Viability of isogenic cell line panel treated with oxidative stress inducers (cell-titer glo); format: cell-based, mouse; conditions: 72 hours of drug treatment
Experimental: (§1) Cells were maintained in DMEM or RPMI supplemented with 10% Fetal Bovine Serum and gentamicin. Cell lines expressing rtTA were kept under Neomycin selection (400 ug/mL). Cell lines expressing dox inducible Nrf2 constructs remained under Hygromycin selection (600 ug/mL). […] Viability in the presence of all compounds was assessed by cell titer glo (Promega #G7570) and trypan blue exclusion on a Countess II automated cell counter (Life Technologies). For clonogenic and low-density assays, cells were stained with Crystal Violet solution (25% Methanol 75% H20). For cell counts after DMF treatment cells were fixed with 4% paraformaldehyde for 15 minutes at 4 C. Cells were then washed in ice cold PBS and then stained with Hoechst DNA stain. Plates were quantified using a Tecan infinite M200 Pro plate reader or a SpectraMax M5 Miroplate reader (Molecular Devices).

[5] = system: KPN-ix cell lines; assay: BSO dose response in KPN-ix cells with doxycycline inducible GOF-Nrf2; format: cell-based, mouse
Experimental: as §1

[6] = system: glutathione (GSH); assay: Glutathione measurement (GSH/GSSG-Glo) after BSO; format: cell-based, mouse
Experimental: ROS in cultured cells were measured by incubating […] with 5 μM CM-H2DCFDA (C6827, Life Technologies) for 30 min at 37° C. DCF fluorescence was acquired on the Attune NxT (ThermoFisher) flow cytometer and analyzed using FlowJo software (Tree Star). Reduced (GSH) and oxidized glutathione (GSSG) was measured with a GSH/GSSG-Glo Assay kit (V6611, Promega) for the indicated amount of time.

[7] = system: KPN cells; assay: Viability of KPN (Nrf2 loss) cells under oxidative stress agents; format: cell-based, mouse; conditions: KPN cells treated with oxidative stress agents (BSO, AUR, ERA)
Experimental: as §1

[8] = system: KPK cell lines; assay: Viability/growth of KPK (Keap1 loss) cell lines compared to KP (cell titer glo, trypan blue, crystal violet); format: cell-based, mouse
Experimental: as §1

[9] = system: KP-ix cells; assay: Viability counts of KP-ix cells (doxycycline inducible GOF-Nrf2) with CB-839; format: cell-based, mouse; conditions: CB-839 250 nM, 72 hours
Experimental: as §1

[10] = system: KP-derived tumors; assay: CB-839 treatment of KP-derived subcutaneous and orthotopic tumors in immunodeficient animals; format: in vivo, mouse; conditions: subcutaneous and orthotopic transplants; 200 mg/kg CB-839 twice a day
Experimental: (§2) Animals were treated as before (Davidson et al. 2016, Cell Metab 23:517-528, doi: 10.1016/j.cmet.2016.01.007) with 200 mg/kg CB-839 or vehicle twice a day after tumor establishment phase. The vehicle contained 25% (w/v) hydroxypropyl-β-cyclodextrin in 10 mmol/L citrate (pH 2.0), and CB-839 was formulated at 20 mg/mL for a final dosing volume of 10 mL/kg.
(§3) It was next asked if increased glutamine utilization in KPK cell lines could be a druggable metabolic liability. […] Consistently, a panel of human lung cancer cells containing KEAP1 mutations or GOF mutations in NRF2 were sensitive to glutaminase inhibition while KEAP1 WT cells were largely resistant (FIG. 9C and FIG. 10B). […] To investigate the therapeutic potential of targeting glutaminase in Keap mutant tumors in vivo, KP and KPK cells were transplanted subcutaneously and orthotopically (lung) in immunodeficient animals. Once tumors had established, treatment was initiated with either vehicle or CB-839, an orally bioavailable glutaminase inhibitor in phase I clinical trials for KRAS mutant NSCLC (FIG. 9E).

[11] = system: KPK-derived subcutaneous and orthotopic tumors; assay: CB-839 treatment of KPK-derived subcutaneous and orthotopic tumors in immunodeficient animals; format: in vivo, mouse
Experimental: as §2, §3

[12] = system: T cell; assay: Impact of CB839 on T cell function (data not shown); format: cell-based
[13] = system: Nrf2; conditions: SFN 10 μM for 6 hr
Experimental: as §1
Cells were lysed in 250 μL ice-cold RIPA buffer (Pierce, #89900) supplemented with 1 × Complete Mini inhibitor mixture (Roche, #11 836 153 001) and mixed on a rotator at 4° C. for 30 minutes. The protein concentration of the cell lysates was quantified using the Bio-Rad DC Protein Assay (Catalog #500-0114). 50-80 μg of total protein was separated on 4-12% Bis-Tris gradient gels (Bio-Rad) by SDS-PAGE and then transferred to nitrocellulose membranes. […]
RNA was collected from cells as before (Papagiannakopoulos et al. (2016, Cell Metab 24, 324-331, doi:10.1016/j.cmet.2016.07.001) with RNeasy plus mini kit (Qiagen), sequenced with X analyzed with YZ. For Real Time qPCR analysis, complementary DNA (cDNA) was synthesized from RNA with the High Capacity cDNA Reverse Transcription Kit (Applied Biosystems #4368814). Genes Slc7a11, Gclc, Hmox1, and Nqo1 were analyzed by quantitative reverse transcription polymerase chain reaction on LightCycler 480 II (Roche). RT qPCR primers (Supplementary Sequences).

Q: For COC(=O)/C=C/C(=O)OC [DMF, Dimethyl fumarate], which “Nrf2 induction (western blot)” value [1] is on record?
A: The value was “induced”.

Q: With CN(C)C(=N)N=C(N)N [metformin] as the compound, how does the GPD2 enzymatic activity [2] read?
A: The GPD2 enzymatic activity was “inhibits”.

Q: And the toxicity [3]?
A: The toxicity was “no toxicity”.

Q: For CCCCS(=N)(=O)CCC(N)C(=O)O [BSO, L-Buthionine-sulfoximine], which “genotype-specific sensitivity (cell viability)” value [4] is on record?
A: Its value is “distinct genotype-specific sensitivities”.

Q: And the “BSO-mediated loss of viability upon induction of GOF-Nrf2” value ([5]; 72 hours of dox induction)?
A: The value was “rescued”.

Q: What about the “IC50 of BSO” value ([5]; KPN-ix +dox versus -dox, 72 hours) of the same compound?
A: The value was “increase”.

Q: And the “levels of GSH and viability” value ([6]; KPK compared to KP clones, 100 μM BSO)?
A: The value was “maintain measurable levels of GSH and viability”.

Q: What about the GSH pools ([6]; KPN clones, after 12 hours of BSO treatment (100 μM)) of the same compound?
A: The GSH pools was “rapid exhaustion of GSH pools”.

Q: And the “reduced glutathione (GSH): oxidized glutathione (GSSG) ratio” value ([6]; panel of isogenic cell lines (KP, KPN, KPK))?
A: The value was “stark contrast”.

Q: Which “rescue of loss of viability by antioxidants” value [7] does the source give for CC(=O)N[C@@H](CS)C(=O)O [N-acetyl cysteine, N-acetyl-L-cysteine] here?
A: The value was “rescued”.

Q: For CC(=O)OC[C@H]1O[C@@H]([S-])[C@H](OC(C)=O)[C@@H](OC(C)=O)[C@@H]1OC(C)=O.CCP(CC)CC.[Au+] [auranofin, Auranofin], which “genotype-specific sensitivity (cell viability)” value [4] is on record?
A: The value was “distinct genotype-specific sensitivities”.

Q: Which “sensitivity to glutaminase inhibitors” value ([8]; KPK compared to KP cell lines, 72 hours) does the source give for O=C(Cc1cccc(OC(F)(F)F)c1)Nc1ccc(CCCCc2nnc(NC(=O)Cc3ccccn3)s2)nn1 [CB-839] here?
A: Its value is “far more sensitive”.

Q: And the “sensitivity to CB-839 upon induction of GOF-Nrf2” value [9]?
A: The value was “robust sensitivity”.

Q: What about the “tumor response to treatment” value [10] of the same compound?
A: The value was “no response”.

Q: What about the final tumor weights ([11]; 200 mg/kg CB-839 twice a day versus vehicle) of the same compound?
A: The final tumor weights was “smaller final tumor weights”.

Q: What about the “tumor growth over the course of the experiment” value ([11]; subcutaneous and orthotopic transplants, 200 mg/kg CB-839 twice a day) of the same compound?
A: The value was “dramatic stunted growth”.

Q: And the “impact on T cell function” value [12]?
A: Its value is “does not negatively impact T cell function”.

Q: Which “sensitivity to glycolytic inhibitor” value ([8]; KPK compared to KP cells, 5 mM 2DG for 72 h) does the source give for O=CC[C@@H](O)[C@H](O)[C@H](O)CO [2-deoxy-D-glucose] here?
A: Its value is “increased sensitivity”.

Q: For Cc1c(C)c2c(c(C)c1O)CCC(C)(C(=O)O)O2 (stereo not shown) [Trolox], which “rescue of loss of viability by antioxidants” value [7] is on record?
A: The value was “rescued”.

Q: What does the source list for C[S+]([O-])CCCCN=C=S (racemic) [Sulforaphane, D,L-Sulforaphane]?
A: Nrf2 protein levels and expression of target genes ([13]; KP cells): stabilized Nrf2 protein levels and expression of target genes; Nrf2 protein levels and expression of target genes ([13]; KP cells, listed as SFN): accumulation of Nrf2 occurs only in the KP samples; Nrf2 protein levels and expression of target genes ([13]; KPK or KPN cells, listed as SFN): not further stabilized
